# Results published in patent US9120804B2, “8-substituted 2-amino-[1,2,4] triazolo [1, 5-A] pyrazines as Syk tryrosine kinase inhibitors and GCN2 serin kinase inhibitors” (Merck Patent GmbH, priority 2012, dated 2015).
# Biological target: T1, SYK (Homo sapiens, UniProt P43405)
# T1 construct: 2.5 nM SYK, 400 nM Biotin-Aha-Aha-KEDPDYEWPSAKK
# Experiment: SYK flash plate assay (enzyme assay)
# Assay type: biochemical
# Protocol: The kinase assay is performed either as 384-well Flashplate assay (for e.g. Topcount measurement) or as 384-well Image-Flashplate assay (for LEADseeker measurement).
# 2.5 nM SYK, 400 nM Biotin-Aha-Aha-KEDPDYEWPSAKK
# and 10 μM ATP (spiked with 0.3 μCi 33P-ATP/well) are incubated in a total volume of 50 μl (60 mM Hepes, 10 mM MgCl2, 1.2 mM Dithiothreitol, 0.02% Brij35, 0.1% BSA, pH 7.5) with or without test compound for 1 hours at 30° C. The reaction is stopped with 25 μl 200 mM EDTA. After 30 Min at 30° C. the liquid is removed and each well washed thrice with 100 μl 0.9% sodium chloride solution. Non-specific reaction is determined in presence of […] Staurosporine. Radioactivity is measured with Topcount (when using Flashplates) or with LEADseeker (when using Image-Flashplates) respectively. Results (e.g. IC50-values) are calculated with program tools provided by the IT-department (e.g. Symyx Assay Explorer, Genedata Screener). In Vivo Assays CIA
row,SMILES,IC50
1,"CC1(C)C(=O)Nc2cc(Nc3nc4c(N5CCc6ccc(C(N)=O)cc65)nccn4n3)ccc21 [E131, 1-[2-(3,3-Dimethyl-2-oxo-2,3-dihydro-1H-indol-6-ylamino)-[1,2,4]triazolo[1,5-a]pyrazin-8-yl]-2,3-dihydro-1H-indole-6-carboxylic acid amide]",< 100 nM
2,"CC1(C)CC(=O)Nc2cc(Nc3nc4c(N5CC(O)CC5c5ccccc5)nccn4n3)ccc21 (stereo not shown) [E96, 7-[8-(4-hydroxy-2-phenyl-pyrrolidin-1-yl)-[1,2,4]triazolo[1,5-a]pyrazin-2-ylamino]-4,4-dimethyl-3,4-dihydro-1H-quinolin-2-one]",300 to 3000 nM
3,"CC1(C)C(=O)Nc2cc(Nc3nc4c(N5C[C@@H](CO)C[C@H]5c5ccccc5)nccn4n3)ccc21 (single isomer, unassigned) [E95, 6-[8-((cis1)-4-hydroxymethyl-2-phenyl-pyrrolidin-1-yl)-[1,2,4]triazolo[1,5-a]pyrazin-2-ylamino]-3,3-dimethyl-1,3-dihydro-indol-2-one]",< 100 nM
4,"COc1cc(Nc2nc3c(N4CCC(NS(C)(=O)=O)CC4)nccn3n2)cc(OC)c1 [C53, N-{1-[2-(3,5-dimethoxy-phenylamino)-[1,2,4]triazolo[1,5-a]pyrazin-8-yl]-piperidin-4-yl}-methanesulfonamide]",300 to 3000 nM
5,"CC1(C)CC(=O)Nc2cc(Nc3nc4c(N5CCC6(CC5)CNC(=O)O6)nccn4n3)ccc21 [E46, 4,4-dimethyl-7-[8-(2-oxo-1-oxa-3,8-diaza-spiro[4.5]dec-8-yl)-[1,2,4]triazolo[1,5-a]pyrazin-2-ylamino]-3,4-dihydro-1H-quinolin-2-one]",< 100 nM
6,"CC1(C)OC(=O)Nc2cc(Nc3nc4c(N5CCC6(CC5)CNC(=O)O6)nccn4n3)ccc21 [E47, 4,4-dimethyl-7-[8-(2-oxo-1-oxa-3,8-diaza-spiro[4.5]dec-8-yl)-[1,2,4]triazolo[1,5-a]pyrazin-2-ylamino]-1,4-dihydro-benzo[d][1,3]oxazin-2-one]",< 100 nM
7,"CC1(C)C(=O)Nc2cc(Nc3nc4c(NCC5CCNCC5)nccn4n3)ccc21 [E91, 3,3-dimethyl-6-{8-[(piperidin-4-ylmethyl)-amino]-[1,2,4]triazolo[1,5-a]pyrazin-2-ylamino}-1,3-dihydro-indol-2-one]",< 100 nM
8,"CC1(C)C(=O)Nc2cc(Nc3nc4c(N5CCc6ccccc65)nccn4n3)ccc21 [E73, 6-[8-(2,3-dihydro-indol-1-yl)-[1,2,4]triazolo[1,5-a]pyrazin-2-ylamino]-3,3-dimethyl-1,3-dihydro-indol-2-one]",< 100 nM
9,"CN(C)CCN(C)c1nccn2nc(Nc3ccc4c(c3)NC(=O)C4(C)C)nc12 [E89, 6-{8-[(2-dimethylamino-ethyl)-methyl-amino]-[1,2,4]triazolo[1,5-a]pyrazin-2-ylamino}-3,3-dimethyl-1,3-dihydro-indol-2-one]",300 to 3000 nM
10,"CC1(C)C(=O)Nc2cc(Nc3nc4c(N5C[C@H](O)C[C@@H]5c5ccccc5)nccn4n3)ccc21 (racemic) [C143, 6-[8-(4-hydroxy-2-phenyl-pyrrolidin-1-yl)-[1,2,4]triazolo[1,5-a]pyrazin-2-ylamino]-3,3-dimethyl-1,3-dihydro-indol-2-one]",100 to 300 nM
11,"CC1(C)C(=O)Nc2cc(Nc3nc4c(N5C6CCC5COC6)nccn4n3)ccc21 [C96, 3,3-dimethyl-6-[8-(3-oxa-8-aza-bicyclo[3.2.1 l]oct-8-yl)-[1,2,4]triazolo[1,5-a]pyrazin-2-ylamino]-1,3-dihydro-indol-2-one]",100 to 300 nM
12,"CNS(=O)(=O)C1CCN(c2nccn3nc(Nc4ccc5c(c4)NC(=O)C5(C)C)nc23)CC1 [E38, 1-[2-(3,3-dimethyl-2-oxo-2,3-dihydro-1H-indol-6-ylamino)-[1,2,4]triazolo[1,5-a]pyrazin-8-yl]-piperidine-4-sulfonic acid methylamide]",100 to 300 nM
13,"CC1(C)CCOc2cc(Nc3nc4c(N5CCC6(CC5)CNC(=O)O6)nccn4n3)ccc21 [E55, 8-[2-(4,4-dimethyl-chroman-7-ylamino)-[1,2,4]triazolo[1,5-a]pyrazin-8-yl]-1-oxa-3,8-diaza-spiro[4.5]decan-2-one]",< 100 nM
14,"CC1(C)C(=O)Nc2cc(Nc3nc4c(NS(=O)(=O)c5ccc(N)cc5)nccn4n3)ccc21 [E118, 4-amino-N-[2-(3,3-dimethyl-2-oxo-2,3-dihydro-1H-indol-6-ylamino)-[1,2,4]triazolo[1,5-a]pyrazin-8-yl]benzenesulfonamide]",3000 to 50000 nM
15,"CC1(C)C(=O)Nc2cc(Nc3nc4c(NS(C)(=O)=O)nccn4n3)ccc21 [E104, N-[2-(3,3-dimethyl-2-oxo-2,3-dihydro-1H-indol-6-ylamino)-[1,2,4]triazolo[1,5-a]pyrazin-8-yl]-methanesulfonamide]",3000 to 50000 nM
16,"NS(=O)(=O)c1cccc(Nc2nc3c(-c4ccccc4-c4ccccc4)nccn3n2)c1 [C13, 3-(8-Biphenyl-2-yl-[1,2,4]triazolo[1,5-a]pyrazin-2-ylamino)-benzenesulfonamide]",3000 to 50000 nM
17,"CC1(C)C(=O)Nc2cc(Nc3nc4c(C5CCCC5)nccn4n3)ccc21 [E66, 6-(8-cyclopentyl-[1,2,4]triazolo[1,5-a]pyrazin-2-ylamino)-3,3-dimethyl-1,3-dihydro-indol-2-one]",300 to 3000 nM
18,"CC1(C(N)=O)CCN(c2nccn3nc(Nc4ccc5c(c4)NC(=O)C5(C)C)nc23)C1 (stereo not shown) [E75, 1-[2-(3,3-dimethyl-2-oxo-2,3-dihydro-1H-indol-6-ylamino)-[1,2,4]triazolo[1,5-a]pyrazin-8-yl]-3-methyl-pyrrolidine-3-carboxylic acid amide]",< 100 nM
19,"CC1(C)C(=O)Nc2cc(Nc3nc4c(N5CCC6(CCNC6=O)C5)nccn4n3)ccc21 (stereo not shown) [E19, 3,3-dimethyl-6-[8-(6-oxo-2,7-diaza-spiro[4.4]non-2-yl)-[1,2,4]triazolo[1,5-a]pyrazin-2-ylamino]-1,3-dihydro-indol-2-one]",100 to 300 nM
20,"CC1(C)C(=O)Nc2cc(Nc3nc4c(NCCCN)nccn4n3)ccc21 [E122, 6-[8-(3-amino-propylamino)-[1,2,4]triazolo[1,5-a]pyrazin-2-ylamino]-3,3-dimethyl-1,3-dihydro-indol-2-one]",300 to 3000 nM
21,"C[S+]([O-])c1ccc(Nc2nc3c(-c4ccccc4-c4ccccc4)nccn3n2)cc1 (stereo not shown) [C31, (8-Biphenyl-2-yl-[1,2,4]triazolo[1,5-a]pyrazin-2-yl)-(4-methanesulfinyl-phenyl)-amine]",3000 to 50000 nM
22,"CC1(C)C(=O)Nc2cc(Nc3nc4c(-c5cnoc5)nccn4n3)ccc21 [E149, 6-(8-isoxazol-4-yl-[1,2,4]triazolo[1,5-a]pyrazin-2-ylamino)-3,3-dimethyl-1,3-dihydro-indol-2-one]",< 100 nM
23,"COc1cc(Nc2nc3c(N4CCNC(c5ccccc5)C4)nccn3n2)cc(OC)c1 (stereo not shown) [C54, (3,5-dimethoxy-phenyl)-[8-(3-phenyl-piperazin-1-yl)-[1,2,4]triazolo[1,5-a]pyrazin-2-yl]-amine]",3000 to 50000 nM
24,"CN(C)c1ccc(-c2nccn3nc(Nc4ccc5c(c4)NC(=O)C5(C)C)nc23)cn1 [E139, 6-[8-(6-dimethylamino-pyridin-3-yl)-[1,2,4]triazolo[1,5-a]pyrazin-2-ylamino]-3,3-dimethyl-1,3-dihydro-indol-2-one]",< 100 nM
25,"CC1(C)C(=O)Nc2cc(Nc3nc4c(N5CCCC5c5ccccc5)nccn4n3)ccc21 (stereo not shown) [C100, 3,3-dimethyl-6-[8-(2-phenyl-pyrrolidin-1-yl)-[1,2,4]triazolo[1,5-a]pyrazin-2-ylamino]-1,3-dihydro-indol-2-one]",300 to 3000 nM
